Test results: US20100267775A1, “OXADIAZOLIDINEDIONE COMPOUND” (priority 2007, published 2010)

Legend:
human GPR40 = biological target: T1, human GPR40 (Homo sapiens, UniProt O14842, R211H); test: Measurement of GPR40 agonistic activity (intracellular calcium, FLIPR, CHO cell line expressing human GPR40); assay type: cell-based; conditions: change in fluorescence intensity one minute after measurement
T1 construct: expressed in transfected cells; host or cells: CHO dhfr- cells stably transfected with plasmid pEF-BOS-dhfr-GPR40
Source text: Test Method 1: Measurement of GPR40 Agonistic Activity i) Cloning of Human GPR40
In accordance with procedures as described below, the full-length sequence of GPR40 was obtained by a polymerase chain reaction (PCR) to set human genomic DNA (Clontech) as a template.
Oligonucleotide which consists of a base sequence represented by SEQ ID NO. 1 was used as a forward primer, and oligonucleotide which consists of a base sequence represented by SEQ ID NO. 2 was used as a reverse primer. To each 5′ terminus of the forward primer and the reverse primer described above, a base sequence including the XbaI recognition site is attached. In the PCR, using Taq DNA polymerase (Ex Taq DNA polymerase; TAKARA BIO INC.), a cycle consisting of 94° C. (15 sec)/55° C. (30 sec)/72° C. (1 min) was repeated 30 times in the presence of 5% DMSO. As a result, the DNA fragment of about 0.9 kbp was amplified. This DNA fragment was digested with XbaI, followed by inserting into the XbaI site of plasmid pEF-BOS-dhfr (Nucleic Acids Research, 18, 5322, 1990) to obtain plasmid pEF-BOS-dhfr-GPR40.
The base sequence of GPR40 gene in plasmid pEF-BOS-dhfr-GPR40 was decided by a dideoxy terminator method using a DNA sequencer (ABI377 DNA Sequencer; Applied Biosystems). The base sequence of GPR40 gene was the same with the base sequence represented by SEQ ID NO. 3. The base sequence represented by SEQ ID NO. […] 4 […]
ii) Preparation of GPR40 Stable Expression Cell
A CHO dhfr cell (CHO cell deleting a dihydrofolate reductase (dhfr) gene) was used as a cell in which GPR 40 protein was expressed. In addition, the plasmid pEF-BOS-dhfr-GPR40 obtained in the above i) was used as an expressing plasmid to express GPR40 protein. To a 6 well plate (Asahi Techno Glass Corp.), the CHO dhfr cells were seeded to become 80 to 90% confluent in an aMEM medium having 10% fetal calf serum (FCS), and cultivated overnight. Then, 2 μg of plasmid pEF-BOS-dhfr-GPR40 per well was transferred generetically thereto using a transfection reagent (Lipofectamine 2000; Invitrogen Corporation). After cultivating for 24 hours subsequent to the gene transfer, the cell were diluted and reseeded. On this occasion, the αMEM medium having 10% FCS was changed for an αMEM medium having 10% FCS and no nucleic acid. After 20 days cultivation, formed cell colonies were collected respectively and cultivated, thereby obtaining CHO cells stably expressing GPR40. Among these, cells high-reactive to an oleic acid and a linoleic acid which were intrinsic ligands were selected. […]
iii) Measurement of GPR40 Agonistic Activity
The GPR40 agonistic activity was measured with fluctuation of the intracellular calcium concentration as an index by FLIPR (registered trademark, Molecular Devices Corporation). Hereinafter, test methods will be described.
A CHO cell line expressing human GPR40 was seeded with 6×10^3 per well to a 384-well black plate (Becton, Dickinson and Company), and cultivated in a CO2 incubator overnight. For a luminescent pigment, a Calcium-3 assay kit (Molecular Devices Corporation) was used, and dissolved in 10 ml of a HBSS-HEPES buffer (PH7.4, 1×HBSS, 20 mM HEPES, Invitrogen Corporation) for a bottle. 35.68 mg of probenecid (Sigma) was dissolved in 250 μl of 1M NaOH, and then 250 μl of a HBSS-HEPES buffer was added to blend. 16 ml of a HBSS-HEPES buffer, 640 μl of the luminescent pigment and 32 μl of probenecid were added to blend for a solution of the luminescent pigment per plate. The medium of the plate was removed, 40 μl of the solution of the luminescent pigment per well was dispensed, followed by incubating at room temperature for 2 hours. A compound to be inspected was dissolved in DMSO, and diluted with a HBSS-HEPES buffer. A reaction was initiated by 10 μl of dispensation, the fluctuation of the intracellular calcium concentration was measured by FLIPR. An EC50 value of the compound to be inspected was calculated from the dose-response curve of change in fluorescence intensity one minute after measurement.

normal mice = test: Single oral glucose tolerance test on normal mice; assay type: in vivo; conditions: Mus musculus; for inhibition in vivo at 10 mg/kg: 0.5 h, read-out: Reduction rate of blood glucose level (%); for minimal effective dose: read-out: MED
Experimental: Test Method 3: Single Oral Glucose Tolerance Test on Normal Mice
The anti-hyperglycemic action after glycemic load of the compound to be inspected was examined using normal mice. Hereinafter, the test method will be described.
Male ICR mice which was preparedly reared for one week (6-week-old) was fasted overnight, and used as an animal to be inspected. A compound to be inspected was 0.5% methylcellulose suspension, and the suspension was orally administered 30 minutes before the glucose (2 g/kg) load. With regard to some compounds to be inspected, prior blood drawing was performed (0 min value), and blood glucose levels were measured at 5, 15, 30, 60 and 120 minutes later glucose load when the compound to be inspected was orally administered. A control group was given 0.5% methylcellulose. The evaluation was carried out in the following manner. (Evaluation 1) The reduction rate of blood glucose levels after glucose loading (%) with respect to the control group was calculated at a point of glucose load which is 30 minutes after the oral administration of 10 mg/kg of the compound to be inspected. […] Ex represents example compound numbers.
(Evaluation 2) The reduction rate of blood glucose levels after glucose loading (%) with respect to the control group was calculated at a point of glucose load which is 30 minutes after the oral administration of 10, 3, 1, 0.3 or 0.1 mg/kg of the compound to be inspected. […] Ex represents example compound numbers. In addition, MED describing “below” in Table 3 means that a test was not carried out due to less than dose described.
The area under the blood concentration-time curve (AUC) of blood glucose levels for 0 to 120 minute(s) was calculated from the blood glucose levels before the blood drawing, and the blood glucose levels at 5, 15, 30, 60, and 120 minutes after the glucose load when 30, 10, 3, 1 or 0.3 mg/kg of the compound to be inspected was orally administered.

T1 sequence (O14842 whole entry R211H): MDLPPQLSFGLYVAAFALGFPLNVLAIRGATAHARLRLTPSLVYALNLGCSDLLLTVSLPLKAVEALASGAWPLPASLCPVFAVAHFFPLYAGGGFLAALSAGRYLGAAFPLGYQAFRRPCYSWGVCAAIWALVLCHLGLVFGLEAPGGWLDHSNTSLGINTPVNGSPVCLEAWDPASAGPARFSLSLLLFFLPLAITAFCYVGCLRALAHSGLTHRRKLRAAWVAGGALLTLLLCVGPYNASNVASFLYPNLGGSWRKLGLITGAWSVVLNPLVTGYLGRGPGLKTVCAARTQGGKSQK

Compound: Cc1cc(OC[C@@H](O)CO)cc(C)c1-c1cccc(COc2ccc(Cn3oc(=O)[n-]c3=O)cc2)c1C.[Na+] [Example 7]
- EC50 (human GPR40): 410 nM
- inhibition in vivo at 10 mg/kg (normal mice): 30%
- minimal effective dose (normal mice): 10 mg/kg

Compound: Cc1cc(OCCC(C)(C)O)nc(C)c1-c1cccc(COc2ccc(Cn3oc(=O)[n-]c3=O)cc2)c1C.[Na+] [Example 60]
- EC50 (human GPR40): 160 nM
- inhibition in vivo at 10 mg/kg (normal mice): 45%
- minimal effective dose (normal mice): < 3 mg/kg

Compound: Cc1cc(OCCO)cc(C)c1-c1cccc(CNc2ccc(Cn3oc(=O)[n-]c3=O)cc2)c1C.[Na+] [Example 70]
- EC50 (human GPR40): 70 nM
- inhibition in vivo at 10 mg/kg (normal mice): 31%
- minimal effective dose (normal mice): 10 mg/kg

Compound: Cc1cc(OCC[C@@H](C)O)nc(C)c1-c1cccc(COc2ccc(Cn3oc(=O)[n-]c3=O)cc2)c1C.[Na+] [Example 84]
- EC50 (human GPR40): 280 nM
- inhibition in vivo at 10 mg/kg (normal mice): 35%
- minimal effective dose (normal mice): < 3 mg/kg

Compound: Cc1cc(OCCO)cc(C)c1-c1cccc(CNc2ccc(Cn3oc(=O)[n-]c3=O)cn2)c1C.[Na+] [Example 80]
- EC50 (human GPR40): 250 nM
- inhibition in vivo at 10 mg/kg (normal mice): 26%
- minimal effective dose (normal mice): 10 mg/kg

Compound: CO[C@@H](CO)COc1cc(C)c(-c2cccc(COc3ccc(Cn4oc(=O)[n-]c4=O)cc3)c2C)c(C)c1.[Na+] [Example 74]
- EC50 (human GPR40): 320 nM
- inhibition in vivo at 10 mg/kg (normal mice): 23%
- minimal effective dose (normal mice): 3 mg/kg

Compound: Cc1cc(OCC[C@@H](O)CO)cc(C)c1-c1cccc(CNc2ccc(Cn3oc(=O)[n-]c3=O)cc2)c1C.[Na+] [Example 101]
- EC50 (human GPR40): 230 nM
- inhibition in vivo at 10 mg/kg (normal mice): 39%
- minimal effective dose (normal mice): 3 mg/kg

Compound: Cc1cc(OCCCNC(=O)C2CC2)cc(C)c1-c1cccc(COc2ccc(Cn3oc(=O)[n-]c3=O)cc2)c1C.[Na+] [Example 21]
- EC50 (human GPR40): 600 nM
- inhibition in vivo at 10 mg/kg (normal mice): 26%
- minimal effective dose (normal mice): 3 mg/kg

Compound: Cc1cc(-c2cccc(CNc3ccc(Cn4oc(=O)[n-]c4=O)cc3)c2C)c(C)cc1OC[C@H](O)CO.[Na+] [Example 97]
- EC50 (human GPR40): 190 nM
- inhibition in vivo at 10 mg/kg (normal mice): 29%
- minimal effective dose (normal mice): 10 mg/kg

Compound: Cc1cc(-c2cccc(COc3ccc(Cn4oc(=O)[n-]c4=O)cc3)c2C)c(C)cc1OCCC(C)(C)O.[Na+] [Example 31]
- EC50 (human GPR40): 69 nM
- inhibition in vivo at 10 mg/kg (normal mice): 50%
- minimal effective dose (normal mice): 1 mg/kg

Compound: Cc1c(COc2ccc(Cn3oc(=O)[n-]c3=O)cc2)cccc1-c1ccc(OCCC(C)(C)O)c(C)c1C.[Na+] [Example 32]
- EC50 (human GPR40): 68 nM
- inhibition in vivo at 10 mg/kg (normal mice): 47%
- minimal effective dose (normal mice): 1 mg/kg

Compound: Cc1cc(OCC[C@H](O)CO)cc(C)c1-c1cccc(CNc2ccc(Cn3oc(=O)[n-]c3=O)cc2)c1C.[Na+] [Example 102]
- EC50 (human GPR40): 230 nM
- inhibition in vivo at 10 mg/kg (normal mice): 48%
- minimal effective dose (normal mice): 10 mg/kg

Compound: Cc1cc(OC[C@H](O)CO)cc(C)c1-c1cccc(CNc2ccc(Cn3oc(=O)[n-]c3=O)cc2)c1C.[Na+] [Example 69]
- EC50 (human GPR40): 69 nM
- inhibition in vivo at 10 mg/kg (normal mice): 34%
- minimal effective dose (normal mice): 1 mg/kg
